Data published in patent publication US20250090505A1, “Methods for Preventing Ectopic Brain Mineralization in Alzheimer's Disease and Dementias” (Tzerma LLC, priority 2022, published 2025).

Assays:
[1] = references 30-31; cited from earlier work
[2] = test system: HCN-2 cells; assay: Inhibition of biomineralization (hydroxyapatite production) by HCN-2 cells, Alizarin Red staining; assay type: cell-based, human; conditions: for effect on alkaline phosphatase and alpha-glycerophosphate triggered biomineralization / hydroxyapatite production by HCN-2 cells, each compound alone: FIGS. 5A-5B
[3] = test system: in vitro biomineralization reaction; assay: Titration of the elements that trigger the in vitro biomineralization reaction; assay type: cell-based; conditions: titration assays, calcium, αGP and TNAP concomitantly present
Procedure: It is determined herein that the biomineralization reaction is dose-dependent on calcium, alpha-glycerophosphate and alkaline phosphatase. It is known that the physiological concentration of alkaline phosphatase in the brain is 1-2 international units per liter (IU/L), which is substantially lower than alkaline phosphatase in peripheral blood serum (44 to 147 IU/L)) (35, 36). […] The minimum dose of calcium, αGP, and TNAP that promptly triggers in vitro biomineralization reaction is 0.45 mM, 1.0 mM, and 100 IU/L, respectively (22).
To measure the physiological glycerophosphate, a method to quantify this organic compound in peripheral blood serum was invented The method of quantifying alpha-glycerophosphate is disclosed in international publication WO 2021/076851, the entirety of which is hereby incorporated by reference. […] The physiological concentration of alpha-glycerophosphate varied substantially amid adult individuals with a mean value of 2.90 mM and standard deviation of 1.98 (median=2.42 mM, max=9.60 mM, and min=0.15 mM). The wide range of alpha-glycerophosphate in blood is likely attributed to personal diet, e.g., a fatty diet and gut microbiome, and physical activity because alpha-glycerophosphate is a metabolite derived from fat to energize mitochondria (37). Overall, 83% of tested samples contained alpha-glycerophosphate greater than 1.0 mM, which is sufficient to trigger biomineralization when calcium and alkaline phosphatase are concomitantly present.

## O=C(O)P(=O)(O)O [Foscarnet, phosphonoformic acid]
[1]
  crossing of the blood-brain barrier: cross the blood-brain barrier
[2]
  effect on alkaline phosphatase and alpha-glycerophosphate triggered biomineralization: inhibitory effects
[2]; in vitro
  hydroxyapatite production by HCN-2 cells, each compound alone: entirely cease
[2]; in vitro, HCN-2 cells, MEMα/10% FBS with αGP and TNAP, 7 days, Alizarin Red (FIGS. 5A-5B)
  concentration of Foscarnet that can competitively inhibit biomineralization: at least 0.02 mM

## Cl.c1ccc([C@H]2CN3CCSC3=N2)cc1 [Levamisole, (−)-(s)-2,3,5,6-tetrahydro-6-phenylimidazo(2,1-b)thiazole mono hydrochloride]
[1]
  crossing of the blood-brain barrier: cross the blood-brain barrier
[2]
  effect on alkaline phosphatase and alpha-glycerophosphate triggered biomineralization: inhibitory effects
[2]; HCN-2 cells, alpha-glycerophosphate 2 mM, recombinant human TNAP 1,000 U/L
  concentration of Levamisole at which biomineralization is inhibited: 1 mM
[2]; in vitro
  hydroxyapatite production by HCN-2 cells, each compound alone: entirely cease

## [Ca+2] [calcium]
[3]
  minimum dose that promptly triggers in vitro biomineralization reaction: 0.45 mM

## O=P(O)(O)OCC(O)CO (stereo not drawn) [αGP, alpha-glycerophosphate]
[3]
  minimum dose that promptly triggers in vitro biomineralization reaction: 1.0 mM
[3]; listed as alpha-glycerophosphate
  minimum dose that promptly triggers in vitro biomineralization reaction: ≥ 1.0 mM

B1: TNAP: human tissue nonspecific alkaline phosphatase, element that triggers biomineralization (protein, UniProt P05186 18-501, looked up)
Alkaline phosphatase, …: LVPEKEKDPKYWRDQAQETLKYALELQKLNTNVAKNVIMFLGDGMGVSTVTAARILKGQLHHNPGEETRLEMDKFPFVALSKTYNTNAQVPDSAGTATAYLCGVKANEGTVGVSAATERSRCNTTQGNEVTSILRWAKDAGKSVGIVTTTRVNHATPSAAYAHSADRDWYSDNEMPPEALSQGCKDIAYQLMHNIRDIDVIMGGGRKYMYPKNKTDVEYESDEKARGTRLDGLDLVDTWKSFKPRYKHSHFIWNRTELLTLDPHNVDYLLGLFEPGDMQYELNRNNVTDPSLSEMVVVAIQILRKNPKGFFLLVEGGRIDHGHHEGKAKQALHEAVEMDRAIGQAGSLTSSEDTLTVVTADHSHVFTFGGYTPRGNSIFGLAPMLSDTDKKPFTAILYGNGPGYKVVGGERENVSMVDYAHNNYQAQSAVPLRHETHGGEDVAVFSKGPMAHLLHGVHEQNYVPHVMAYAACIGANLGHCAPAS
[3]
  minimum dose that promptly triggers in vitro biomineralization reaction: 100 IU/L
